The source of these data is patent US20220293224A1, “MODULAR SYNTHON-BASED SCREENING APPROACH FOR USE IN DRUG DISCOVERY FOR DISEASES” (priority 2021, published 2022).

Read-outs that look alike come from different tables or passages of the source. Where only a bound is given, the exact number is not on record here.

Usually Ki stands for the equilibrium dissociation constant of an inhibitor or competing ligand from its target.

For experiment [1], the target named is T1, human CB2 (Homo sapiens, UniProt P34972). As to the kind of experiment: Tango β-arrestin recruitment antagonist assay at CB2. Set-up: expressed in transfected cells; host or cells: HTLA cells. The experiment is classed as cell-based. The note with it: Tango antagonist assay with 100 nM CP55940; n=4 independent assays, 16 dose-response points; read-out: CB2 Antagonist potency Ki. On the procedure: (§1) The Tango arrestin recruitment assays were performed as previously described. Briefly, HTLA cells were transiently transfected with human CB1 or CB2 Tango DNA construct overnight in DMEM supplemented with 10% FBS, 100 μg/ml streptomycin and 100 U/ml penicillin. The transfected cells were then plated into Poly-L-Lysine coated 384-well white clear bottom cell culture plates in DMEM containing 1% dialyzed FBS at a density of 10,000-15,000 cells/well. After 6 hours incubation, the plates were added with drug solutions prepared in DMEM containing 1% dialyzed FBS for overnight incubation. […] On the day of assay, medium and drug solutions were removed and 20 μL/well of BrightGlo reagent (Promega) was added. The plates were further incubated for 20 min at room temperature and counted using a Wallac TriLux Microbeta counter (PerkinElmer). Results were analyzed using GraphPad Prism 8.
T1 sequence (P34972 whole entry): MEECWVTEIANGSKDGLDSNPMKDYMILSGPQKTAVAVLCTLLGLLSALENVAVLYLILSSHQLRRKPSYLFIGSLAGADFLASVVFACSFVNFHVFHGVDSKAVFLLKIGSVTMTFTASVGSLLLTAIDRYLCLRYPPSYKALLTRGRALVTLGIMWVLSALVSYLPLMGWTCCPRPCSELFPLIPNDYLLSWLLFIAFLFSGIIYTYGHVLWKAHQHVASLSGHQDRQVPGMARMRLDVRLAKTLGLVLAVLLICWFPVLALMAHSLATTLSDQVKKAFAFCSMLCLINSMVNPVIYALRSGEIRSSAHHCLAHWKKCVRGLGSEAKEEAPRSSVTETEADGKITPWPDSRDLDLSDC
A general note: Activated receptors often draw arrestin, which recruitment assays turn into a signal.

For experiment [2], the target named is T1, human CB2. The experiment can be described thus: Radioligand binding assay with [3H]CP-55,940, HEK293 cells expressing hCB2. Set-up: expressed in transfected cells; host or cells: HEK293 cells. On the procedure: (§2) The affinities (IQ of the new compounds for rat CB1 receptor as well as for human CB2 receptors were obtained by using membrane preparations from rat brain or HEK293 cells expressing hCB2 receptors, respectively, and [^3H]CP-55,940 as the radioligand, as previously described. Results from the competition assays were analyzed using nonlinear regression to determine the IC50 values for the ligand; Ki values were calculated from the I50 (Prism by GraphPad Software, Inc.). Each experiment was performed in triplicate and Ki values determined from three independent experiments and are expressed as the mean of the three values.

For experiment [3], the target named is T2, human CB1 (Homo sapiens, UniProt P21554).
T2 construct: expressed in transfected cells; host or cells: HTLA cells
T2 sequence (P21554 whole entry): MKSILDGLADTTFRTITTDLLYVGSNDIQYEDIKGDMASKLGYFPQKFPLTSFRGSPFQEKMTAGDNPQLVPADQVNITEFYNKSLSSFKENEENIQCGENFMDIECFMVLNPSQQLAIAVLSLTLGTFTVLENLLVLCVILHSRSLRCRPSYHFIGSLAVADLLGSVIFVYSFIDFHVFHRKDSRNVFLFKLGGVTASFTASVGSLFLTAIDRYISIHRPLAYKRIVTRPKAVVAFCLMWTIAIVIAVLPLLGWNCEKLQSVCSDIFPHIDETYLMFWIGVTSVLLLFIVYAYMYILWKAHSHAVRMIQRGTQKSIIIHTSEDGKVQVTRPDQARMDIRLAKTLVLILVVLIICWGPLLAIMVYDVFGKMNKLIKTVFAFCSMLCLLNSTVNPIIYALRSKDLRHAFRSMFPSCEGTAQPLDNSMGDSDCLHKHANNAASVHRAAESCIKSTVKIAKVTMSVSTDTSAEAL
The experiment is classed as cell-based. The note with it: read-out: CB1 Antagonist potency Ki. The procedure:
as §1

The target of experiment [4] is T3, rat CB1 receptor (Rattus norvegicus, UniProt P20272).
T3 construct: membrane preparations from rat brain; from tissue; host or cells: rat brain membranes
T3 sequence (P20272 whole entry): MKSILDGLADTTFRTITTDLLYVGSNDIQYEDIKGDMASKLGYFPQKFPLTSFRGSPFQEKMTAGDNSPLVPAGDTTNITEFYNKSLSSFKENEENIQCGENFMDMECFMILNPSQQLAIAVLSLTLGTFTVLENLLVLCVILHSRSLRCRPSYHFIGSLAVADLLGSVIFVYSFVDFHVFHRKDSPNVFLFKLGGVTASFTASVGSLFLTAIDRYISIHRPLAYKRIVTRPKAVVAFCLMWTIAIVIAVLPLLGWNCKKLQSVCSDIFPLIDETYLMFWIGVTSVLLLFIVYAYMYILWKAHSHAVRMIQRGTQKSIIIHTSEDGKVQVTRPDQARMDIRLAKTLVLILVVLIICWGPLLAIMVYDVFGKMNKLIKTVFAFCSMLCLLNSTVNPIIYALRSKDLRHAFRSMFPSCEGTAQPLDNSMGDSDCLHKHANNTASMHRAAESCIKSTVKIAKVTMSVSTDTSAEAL
As to the kind of experiment: Radioligand binding assay with [3H]CP-55,940, rat brain membranes. On the procedure:
as §2

The subject of experiment [5] is panel of more than 300 receptors. The experiment can be described thus: PRESTO-Tango GPCRome off-target panel. The experiment is classed as cell-based. The note with it: for activities at off-targets in follow-up dose-response curves: follow-up dose-response of potential actives. On the procedure: Screening of the compounds in the PRESTO-Tango GPCRome was performed as previously described with modifications. First, HTLA cells were plated in poly-L-lysine coated 384-well white plates in DMEM containing 1% dialyzed FBS for 6 hours. Next, the cells were transfected with 20 ng/well PRESTO-Tango receptor DNAs overnight. Then, the cells were added with 10 μM drugs without changing the medium and incubated for another 24 hours. The remaining steps of the PRESTO-Tango protocol were followed. The results were plotted as fold of basal against individual receptors in the GraphPad 8.0 software. For the receptors that had >3-fold of basal signaling activity, assays were repeated as a full dose-response assay and the results were plotted as a percentage of reference compounds.

Where [6] appears, read: human CB2, [3H]CP-55,940 radioligand, read-out: CB2 affinity Ki.
[7] abbreviates: rat CB1, [3H]CP-55,940, estimates from 3-point assays, read-out: CB1 affinity Ki (asterisk: estimate from 3-point assays).
[8] abbreviates: rat CB1, [3H]CP-55,940 radioligand, read-out: CB1 affinity Ki.
The mark [9] stands for this setting: human CB2, [3H]CP-55,940, estimates from 3-point assays, read-out: CB2 affinity Ki (asterisk: estimate from 3-point assays).

As for `Cc1ccc(CN(Cc2ccco2)S(=O)(=O)c2cnn(-c3ccccc3F)c2)s1` [BRI-13668], the values for the inhibitory constant (Ki) in experiment [1] and in experiment [2] (setting [6]) were 4.78 µM and 5.2 µM, respectively.

As for `Cc1ccc(NC(=O)N2CCC(O)(c3ccccc3F)C2)cc1S(=O)(=O)N1CCCCCC1` (stereo not drawn) [BRI-13599], the inhibitory constant (Ki) in experiment [3] was 2.33 µM; in experiment [4] (setting [7]) it was 26.5 µM; in experiment [1] it was 2.44 µM; in experiment [2] (setting [6]), 10.4 µM.

On to `COc1ccc(-c2nccc(N3CCCC(Cc4ccc(N)nc4)C3)n2)cc1` (stereo not drawn) [BRI-13565], for which the Ki in experiment [4] (setting [7]) is 4.5 µM; in experiment [1], 3.77 µM; in experiment [2] (setting [6]), 13.6 µM.

Consider `O=S(=O)(C1=Cc2cc(Cl)ccc2OC1)N(CCc1ccccn1)Cc1cccnc1` [BRI-13684], for which the Ki in experiment [3] amounted to 1.16 µM; in experiment [4] (setting [8]), 25.5 µM; in experiment [1] it was 7.28 µM; in experiment [2] (setting [6]), 5.3 µM.

For the compound `Cc1cc(Cl)cn2cc(CNC(=O)C(=O)NC(COc3ccccc3)c3ccccc3)nc12` (stereo not drawn) [BRI-13520], the inhibition constant (Ki) in experiment [3] was 1.07 µM; in experiment [4] (setting [8]) it was 11.6 µM; in experiment [1], 5.2 µM; in experiment [2] (setting [6]) it was 12.8 µM.

Consider `O=C1Cc2cc(NC(=O)C(=O)NC(CCc3ccccc3)c3ccccc3)ccc2N1` (stereo not drawn) [BRI-13515], for which the inhibition constant Ki in experiment [3] was determined as 0.94 µM; in experiment [4] (setting [8]) it was 6.1 µM; in experiment [1] it was 3.81 µM; in experiment [2] (setting [6]), 2.85 µM.

For the compound `O=C(Nc1ccn(C2CCCCC2)n1)C(=O)NC(CCc1ccccc1)c1ccccc1` (stereo not drawn) [BRI-13610], the inhibitory constant (Ki) in experiment [3] stood at 0.76 µM; in experiment [4] (setting [8]), 0.62 µM; in experiment [1] it was 4.17 µM; in experiment [2] (setting [6]) it was 0.28 µM. In experiment [5], the “activities at off-targets in follow-up dose-response curves” value is given as “only negligible activities”.

For the compound `N#Cc1ccc(C(=O)NCCN(Cc2ccccc2)C(=O)c2cc(C(F)(F)F)cs2)s1` [BRI-13633], the inhibition constant (Ki) in experiment [3] was 0.23 µM; in experiment [4] (setting [7]) it was 10 µM; in experiment [1], 1.53 µM.

Regarding `O=C(C1CC1)N1CCc2ccc(S(=O)(=O)NC(CCc3ccccc3)c3ccccn3)cc21` (stereo not drawn) [BRI-13663], the inhibition constant (Ki) is 12.5 µM in experiment [4] (setting [7]), 14.5 µM in experiment [1] and 14.3 µM in experiment [2] (setting [6]).

Turning to `CS(C)(=O)=NS(=O)(=O)c1cccc(C(=O)OCc2cccc3ccsc23)c1` [BRI-13650], the results for the Ki in experiment [3], in experiment [4] (setting [7]) and in experiment [1] were 3.22 µM, 45 µM and 12.2 µM, respectively.

As for `O=C1CCc2cc(OCCNC(=O)N(Cc3ccccc3)Cc3ccc(F)cc3)ccc2N1` [BRI-13619], the inhibitory constant (Ki) was 0.05 µM in experiment [3], 45 µM in experiment [4] (setting [7]) and 0.11 µM in experiment [1].

Consider `CCCC(NS(=O)(=O)C1CC2(CC2)C1)C(=O)Nc1cccc(N2CCCC2)c1` (stereo not drawn) [BRI-13681], for which the Ki in experiment [3] turned out to be 0.42 µM; in experiment [4] (setting [8]) it was 8.2 µM; in experiment [1] it was 1.86 µM; in experiment [2] (setting [6]), 4.2 µM.

As to `Cc1ccc(NC(=O)Nc2ccn(C3CCCCCC3)n2)cc1S(=O)(=O)N1CCCCCC1` [BRI-13544], the Ki in experiment [1] is 7.78 µM; in experiment [2] (setting [9]) it was 2.5 µM.

With `O=S(=O)(NC1CC1)c1ccc(S(=O)(=O)NC(CCc2ccccc2)c2ccccn2)cc1` (stereo not drawn) [BRI-13661], the inhibition constant (Ki) in experiment [3] is 0.55 µM; in experiment [4] (setting [7]), 19 µM; in experiment [1], 4.37 µM; in experiment [2] (setting [6]) it was 4 µM.

Turning to `O=C(c1ccc(F)cc1)c1cc(Cl)ccc1NS(=O)(=O)c1cnn(C2CCCCC2)c1` [BRI-13665], the inhibitory constant (Ki) in experiment [3] was 0.39 µM; in experiment [4] (setting [7]), greater than 7 µM; in experiment [1], 0.82 µM; in experiment [2] (setting [6]) it was 6.7 µM.

As for `Cc1ccc(NC(=O)Nc2ccn(C3CCOCC3)n2)cc1S(=O)(=O)N1CCCCCC1` [BRI-13505], the Ki in experiment [3] was 0.28 µM; in experiment [4] (setting [8]) it was 16.4 µM; in experiment [1] it was 0.54 µM; in experiment [2] (setting [9]), 1 µM.

`O=C(NCC1(Cc2ccccc2)CC=CCC1)C(=O)Nc1c(F)ccc(Br)c1F` (stereo not drawn) [BRI-13566]: the inhibition constant (Ki) is 2.05 µM in experiment [3], 6.9 µM in experiment [4] (setting [7]), 4.04 µM in experiment [1] and 1.2 µM in experiment [2] (setting [6]).

Consider `C=CCC1(S(=O)(=O)NC(=O)c2ccc(N3CCCCC3)c(S(=O)(=O)N3CCCCCC3)c2)CC1` [BRI-13523], for which the inhibitory constant (Ki) in experiment [3] was determined as 1.82 µM; in experiment [4] (setting [8]), 12 µM; in experiment [1], 1.59 µM; in experiment [2] (setting [6]), 0.85 µM. Further, in experiment [5], the “activities at off-targets in follow-up dose-response curves” value was “only negligible activities”. Further, in experiment [5] (panel of more than 300 receptors), the “selectivity against the GPCRome-Tango panel” value is reported as “high selectivity”.

On to `CC1(C)NC(=O)N(CCCNC(=O)NCc2oc3ccc(Cl)cc3c2-c2ccccc2)C1=O` [BRI-13559], for which the Ki in experiment [3] turned out to be 0.98 µM; in experiment [1], 4.25 µM; in experiment [2] (setting [6]), 12.2 µM.

As to `Cn1ccc(-n2cc(-c3csc(C(NC(=O)c4ccccc4)c4ccccc4)n3)nn2)n1` (stereo not drawn) [BRI-13580], the Ki in experiment [3] was 5.8 µM; in experiment [1] it was 6.92 µM; in experiment [2] (setting [9]), 1.5 µM.
